Measured values published in patent US20210045385A1, “PYRIDAZINONE-SUBSTITUTED KETOXIMES AS HERBICIDES” (FMC Corporation, priority 2018, published 2021).

How the values were obtained:
Assay type in all cases: in vivo
[1] = tested on: corn (Zea mays); assay: Test A postemergence, visual plant response rating; details: for Corn plant response rating (0 to 100 scale): 500 g ai/ha, postemergence, 0 is no effect, 100 is complete control; for Corn plant response rating: Postemergence, 125 g ai/ha, 0 to 100 scale (0 no effect, 100 complete control)
Outline: (§1)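 Formulated in a non-phytotoxic solvent mixture including surfactant, each test chemical was sprayed onto the soil surface after sowing, or onto seedlings 2 to 10 cm high. Roughly 10 days later, plants were compared with untreated controls and rated for injury from 0 (no effect) to 100 (complete control).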

[2] = tested on: barnyardgrass (Echinochloa crus-galli); assay: Test A postemergence, visual plant response rating; details: for Barnyardgrass plant response rating (0 to 100 scale): 500 g ai/ha, postemergence, 0 is no effect, 100 is complete control; for Barnyardgrass plant response rating: Postemergence, 125 g ai/ha, 0 to 100 scale (0 no effect, 100 complete control)
Outline: as §1

[3] = tested on: kochia (Kochia scoparia); assay: Test A postemergence, visual plant response rating; details: for Kochia plant response rating (0 to 100 scale): 500 g ai/ha, postemergence, 0 is no effect, 100 is complete control; for Kochia plant response rating: Postemergence, 125 g ai/ha, 0 to 100 scale (0 no effect, 100 complete control)
Outline: as §1

[4] = tested on: pigweed (Amaranthus retroflexus); assay: Test A postemergence, visual plant response rating; details: for Pigweed plant response rating (0 to 100 scale): 500 g ai/ha, postemergence, 0 is no effect, 100 is complete control; for Pigweed plant response rating: Postemergence, 125 g ai/ha, 0 to 100 scale (0 no effect, 100 complete control)
Outline: as §1

[5] = tested on: galium (catchweed bedstraw, Galium aparine); assay: Test A postemergence, visual plant response rating; details: for Galium plant response rating (0 to 100 scale): 500 g ai/ha, postemergence, 0 is no effect, 100 is complete control; for Galium plant response rating: Postemergence, 125 g ai/ha, 0 to 100 scale (0 no effect, 100 complete control)
Outline: as §1

[6] = tested on: wheat (Triticum aestivum); assay: Test A postemergence, visual plant response rating; details: for Wheat plant response rating: 0 to 100 scale (0 no effect, 100 complete control)
Outline: as §1

[7] = tested on: blackgrass (Alopecurus myosuroides); assay: Test A postemergence, visual plant response rating; details: for Blackgrass plant response rating (0 to 100 scale): 500 g ai/ha, postemergence, 0 is no effect, 100 is complete control; for Blackgrass plant response rating: Postemergence, 125 g ai/ha, 0 to 100 scale (0 no effect, 100 complete control)
Outline: as §1

[8] = tested on: foxtail, giant (giant foxtail, Setaria faberii); assay: Test A postemergence, visual plant response rating; details: for Foxtail, Giant plant response rating (0 to 100 scale): 500 g ai/ha, postemergence, 0 is no effect, 100 is complete control; for Foxtail, Giant plant response rating: Postemergence, 125 g ai/ha, 0 to 100 scale (0 no effect, 100 complete control)
Outline: as §1

[9] = tested on: Italian ryegrass (Lolium multiflorum); assay: Test A postemergence, visual plant response rating; details: for Ryegrass, Italian plant response rating: 125 g ai/ha, 0 to 100 scale (0 no effect, 100 complete control)
Outline: as §1

[10] = tested on: ragweed (common ragweed, Ambrosia elatior); assay: Test A postemergence, visual plant response rating; details: for Ragweed plant response rating (0 to 100 scale): 500 g ai/ha, postemergence, 0 is no effect, 100 is complete control; for Ragweed plant response rating: Postemergence, 125 g ai/ha, 0 to 100 scale (0 no effect, 100 complete control)
Outline: as §1

[11] = tested on: barnyardgrass (Echinochloa crus-galli); assay: Test A preemergence, visual plant response rating; details: for Barnyardgrass plant response rating: 125 g ai/ha, preemergence, 0 to 100 scale, 0 no effect, 100 complete control; for Barnyardgrass plant response rating (0 to 100 scale): 500 g ai/ha Preemergence, approx. 10 days
Outline: as §1

[12] = tested on: kochia (Kochia scoparia); assay: Test A preemergence, visual plant response rating; details: for Kochia plant response rating: 125 g ai/ha, preemergence, 0 to 100 scale, 0 no effect, 100 complete control; for Kochia plant response rating (0 to 100 scale): 500 g ai/ha Preemergence, approx. 10 days
Outline: as §1

[13] = tested on: pigweed (Amaranthus retroflexus); assay: Test A preemergence, visual plant response rating; details: for Pigweed plant response rating: 125 g ai/ha, preemergence, 0 to 100 scale, 0 no effect, 100 complete control; for Pigweed plant response rating (0 to 100 scale): 500 g ai/ha Preemergence, approx. 10 days
Outline: as §1

[14] = tested on: foxtail, giant (giant foxtail, Setaria faberii); assay: Test A preemergence, visual plant response rating; details: for Foxtail, Giant plant response rating: 125 g ai/ha, preemergence, 0 to 100 scale, 0 no effect, 100 complete control; for Foxtail, Giant plant response rating (0 to 100 scale): 500 g ai/ha Preemergence, approx. 10 days
Outline: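 Ratings use a 0–100 visual scale (100 = complete control) against untreated controls, scored about 10 days after greenhouse treatment. Test chemicals were formulated in surfactant-containing non-phytotoxic solvent and applied either as soil spray after planting (preemergence) or onto one- to two-leaf, 2–10 cm plants (postemergence).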

[15] = tested on: Italian ryegrass (Lolium multiflorum); assay: Test A preemergence, visual plant response rating; details: for Ryegrass, Italian plant response rating: 125 g ai/ha, preemergence, 0 to 100 scale, 0 no effect, 100 complete control; for Ryegrass, Italian plant response rating (0 to 100 scale): 500 g ai/ha Preemergence, approx. 10 days
Outline: as §1

[16] = tested on: ragweed (common ragweed, Ambrosia elatior); assay: Test A preemergence, visual plant response rating; details: for Ragweed plant response rating: 125 g ai/ha, preemergence, 0 to 100 scale, 0 no effect, 100 complete control; for Ragweed plant response rating (0 to 100 scale): 500 g ai/ha Preemergence, approx. 10 days
Outline: as §1

[17] = tested on: sedge, umbrella (small-flower umbrella sedge, Cyperus difformis); assay: Test B flooded paddy test, visual plant response rating; details: 250 g ai/ha, Flood, applied to paddy water, 2-leaf stage, evaluated after 13 to 15 days
Outline: (§2)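 At the two-leaf stage, seedlings received compound applied to paddy water flooded 3 cm above soil, a level sustained until assessment. Greenhouse incubation lasted 13 to 15 days before visual comparison with control plants.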

[18] = tested on: barnyardgrass (Echinochloa crus-galli); assay: as above; details: 250 g ai/ha, Flood, applied to paddy water, 2-leaf stage, evaluated after 13 to 15 days
Outline: as §2

[19] = tested on: rice (Oryza sativa); assay: as above; details: 250 g ai/ha, Flood, applied to paddy water, 2-leaf stage, evaluated after 13 to 15 days
Outline: as §2

[20] = tested on: ducksalad (Heteranhera limosa); assay: as above; details: 250 g ai/ha, Flood, applied to paddy water, 2-leaf stage, evaluated after 13 to 15 days
Outline: as §2

[21] = 500 g ai/ha, postemergence, 0 is no effect, 100 is complete control

Compound	Corn plant response rating (0 to 100 scale) [1]	Corn plant response rating [1]	Barnyardgrass plant response rating (0 to 100 scale) [2]	Barnyardgrass plant response rating [2]	Kochia plant response rating (0 to 100 scale) [3]	Kochia plant response rating [3]	Pigweed plant response rating (0 to 100 scale) [4]	Pigweed plant response rating [4]	Galium plant response rating (0 to 100 scale) [5]	Galium plant response rating [5]	Blackgrass plant response rating (0 to 100 scale) [7]	Blackgrass plant response rating [7]	Foxtail, Giant plant response rating (0 to 100 scale) [8]	Foxtail, Giant plant response rating [8]	Ryegrass, Italian plant response rating (0 to 100 scale) [9, 21]	Ragweed plant response rating (0 to 100 scale) [10]	Ragweed plant response rating [10]	Barnyardgrass plant response rating [11]	Barnyardgrass plant response rating (0 to 100 scale) [11]	Kochia plant response rating [12]	other results
CCO/N=C(\c1c(O)c(Cl)nn(C)c1=O)c1cccc2ccccc12 [Compound 146]	20	30	60	30	80	60	90	70	90	70	60	30	70	60	0	100	90	60	60	30	Wheat plant response rating ([6]; Postemergence, 500 g ai/ha): 0; Wheat plant response rating (0 to 100 scale) ([6]; Postemergence, approx. 10 days): 0; Ryegrass, Italian plant response rating (0 to 100 scale) ([9]; Postemergence, rate not given, approx. 10 days): 0; Kochia plant response rating (0 to 100 scale) [12]: 100; Pigweed plant response rating [13]: 80; Pigweed plant response rating (0 to 100 scale) [13]: 100; Foxtail, Giant plant response rating [14]: 70; Foxtail, Giant plant response rating (0 to 100 scale) [14]: 80; Ryegrass, Italian plant response rating [15]: 0; Ryegrass, Italian plant response rating (0 to 100 scale) [15]: 0; Ragweed plant response rating [16]: 90; Ragweed plant response rating (0 to 100 scale) [16]: 100; Plant response rating, Sedge, Umbrella (0 to 100 scale, 0 is no effect, 100 is complete control) [17]: 0; Plant response rating, Barnyardgrass (0 to 100 scale, 0 is no effect, 100 is complete control) [18]: 0; Plant response rating, Rice (0 to 100 scale, 0 is no effect, 100 is complete control) [19]: 0; Plant response rating, Ducksalad (0 to 100 scale, 0 is no effect, 100 is complete control) [20]: 0
CO/N=C(\c1ccccc1C(C)C)c1c(O)c(C)nn(C)c1=O [Compound 94]	20	10	30	20	60	20	80	50	70	60	80	20	70	40	80	70	50	10	50	0	Wheat plant response rating (0 to 100 scale) [6, 21]: 40; Wheat plant response rating ([6]; Postemergence, 125 g ai/ha): 0; Ryegrass, Italian plant response rating ([9]; Postemergence): 30; Kochia plant response rating (0 to 100 scale) [12]: 10; Pigweed plant response rating [13]: 10; Pigweed plant response rating (0 to 100 scale) [13]: 70; Foxtail, Giant plant response rating [14]: 20; Foxtail, Giant plant response rating (0 to 100 scale) [14]: 60; Ryegrass, Italian plant response rating [15]: 50; Ryegrass, Italian plant response rating (0 to 100 scale) [15]: 90; Ragweed plant response rating [16]: 10; Ragweed plant response rating (0 to 100 scale) [16]: 70; Plant response rating, Sedge, Umbrella (0 to 100 scale, 0 is no effect, 100 is complete control) [17]: 0; Plant response rating, Barnyardgrass (0 to 100 scale, 0 is no effect, 100 is complete control) [18]: 0; Plant response rating, Rice (0 to 100 scale, 0 is no effect, 100 is complete control) [19]: 0; Plant response rating, Ducksalad (0 to 100 scale, 0 is no effect, 100 is complete control) [20]: 0
C=CCO/N=C(/c1c(O)c(C)nn(C)c1=O)c1ccc(F)c2ccccc12 [Compound 87]	30	0	80	60	70	40	90	70	100	80	90	80	80	70	100	90	100	70	90	0	Wheat plant response rating (0 to 100 scale) [6, 21]: 60; Wheat plant response rating ([6]; Postemergence, 125 g ai/ha): 40; Ryegrass, Italian plant response rating ([9]; Postemergence): 80; Kochia plant response rating (0 to 100 scale) [12]: 30; Pigweed plant response rating [13]: 30; Pigweed plant response rating (0 to 100 scale) [13]: 100; Foxtail, Giant plant response rating [14]: 90; Foxtail, Giant plant response rating (0 to 100 scale) [14]: 100; Ryegrass, Italian plant response rating [15]: 90; Ryegrass, Italian plant response rating (0 to 100 scale) [15]: 100; Ragweed plant response rating [16]: 90; Ragweed plant response rating (0 to 100 scale) [16]: 90; Plant response rating, Sedge, Umbrella (0 to 100 scale, 0 is no effect, 100 is complete control) [17]: 0; Plant response rating, Barnyardgrass (0 to 100 scale, 0 is no effect, 100 is complete control) [18]: 0; Plant response rating, Rice (0 to 100 scale, 0 is no effect, 100 is complete control) [19]: 0; Plant response rating, Ducksalad (0 to 100 scale, 0 is no effect, 100 is complete control) [20]: 0
